ChEMBL document CHEMBL4610057, “Benzopyrimidodiazepinone inhibitors of TNK2” (Bioorg Med Chem Lett, 2020)

Tests used:
in vivo [1] = details: CD1, mouse, po, 10 mg/kg
[2] = mouse, microsomes
in vitro [3] = details: mouse, hepatocytes
in vivo [4] = details: CD1, mouse, iv, 3 mg/kg
in vivo [5] = details: CD1, mouse, iv, 3 mg/kg; remark: listed apart in the source
[6] = Metabolic stability in mouse liver microsomes assessed as parent compound remaining measured after 60 mins; assay type: ADME, Microsome
in vivo [7] = details: CD1, mouse, po, 10 mg/kg; remark: listed apart in the source
in vitro [8] = details: mouse, liver microsomes

Row | bioavailability (in vivo [1]) | t1/2 [2] | half-life (in vitro [3]) | clearance (in vivo [4]) | half-life (in vivo [5]) | Stability ([6]; microsomes, 1 h) | AUC(0-inf) (in vivo [7]) | half-life (in vitro [8]) | remaining at 1 h ([6]; liver microsomes, read-out: Stability) | SMILES
1 | 5% | 0.467 h | 5.78 h | 150 mL/min/kg | 0.7 h | 2% | 56 ng·h/mL | – | – | COc1cc(N2CCN(C)CC2)ccc1Nc1ncc2c(n1)N(C)c1ccccc1C(=O)N2
2 | 46% | – | > 8.33 h | 25 mL/min/kg | 4.4 h | – | 2000 ng·h/mL | 0.367 h | 40% | COc1cc(N2CCN(C)CC2)ccc1Nc1ncc2c(n1)N(C)c1ccccc1C(=O)N2C

Row | SMILES | bioavailability (in vivo [1]) | t1/2 [2] | half-life (in vitro [3]) | clearance (in vivo [4]) | half-life (in vivo [5]) | Stability ([6]; microsomes, 1 h) | AUC(0-inf) (in vivo [7]) | half-life (in vitro [8]) | remaining at 1 h ([6]; liver microsomes, read-out: Stability)
3 | COc1cc2c(cc1Nc1ccc(Nc3ncc4c(n3)N(C)c3ccccc3C(=O)N4)cc1)CCN(C)C2 | 7% | – | – | 120 mL/min/kg | 10 h | – | 125 ng·h/mL | – | –
